Source: patent US20250257041A1, “INDUCERS OF INTEGRATED STRESS RESPONSE TO TREAT CANCER” (The Board of Regents of The University of Texas System, priority 2022, published 2025)

tested on: HCT116 WT; test: Proliferation of HCT116 colorectal cell line, Cell TiterGlo; assay type: cell-based, human; settings: Homo sapiens, HCT-116, wild type HCT116; 10-point dose response in triplicate; multiple values = separate independent experiments; read-out: HCT116 IC50 (uM) HCT116 WT
Protocol: Briefly, compounds were tested for their effect on proliferation of HCT116 colorectal cell lines using Cell TiterGlo (Promega). Each compound was tested in a 10-point dose response experiment in triplicate. Multiple values in the column titled HCT116 WT reflect separate independent experiments. The three columns titled “HCT116 WT (repeat)”, “HCT116-CGN2KO” and “HCT116 WT+ISRIB” provide data for selected compounds that were tested simultaneously under three conditions. The HCT116 WT column lists IC50 against the wild type HCT116 colorectal cancer cell line. The HCT116-CGN2KO lists IC50 data for cells in which one component of the integrated stress response, GCN2, has been knocked out using CRISPR technology.

| Compound | IC50 [µM] |
| --- | --- |
| Cn1nc(-c2ccc(NC(=O)c3ccccc3Cl)cc2)cc1NC(=O)c1ccccc1F [SW393244, 2-chloro-N-(4-(5-(2-fluorobenzamido)-1-methyl-1H-pyrazol-3-yl)phenyl)benzamide] | ~0.01 |
| O=C(Nc1ccc(-c2cc(NC(=O)c3ccccc3)on2)cc1)c1ccccc1 [SW394572, N-(4-(5-benzamidoisoxazol-3-yl)phenyl)benzamide] | 5.8 |
| Cn1nc(-c2ccc(NC(=O)c3ccccc3-c3ccccc3)cc2)cc1NC(=O)c1ccccc1 [SW393270, N-(4-(5-benzamido-1-methyl-1H-pyrazol-3-yl)phenyl)-[1,1′-biphenyl]-2-carboxamide] | 0.13 |
| C#CCOc1cccc(C(=O)Nc2cc(-c3ccc(NC(=O)c4cc(N=[N+]=[N-])ccc4Cl)cc3)nn2C)c1 [SW393213, 5-Azido-2-chloro-N-(4-(1-methyl-5-(3-(prop-2-yn-1-yloxy)benzamido)-1H-pyrazol-3-yl)phe-nyl)benzamide] | 0.37 |
| Cc1ncccc1C(=O)Nc1ccc(-c2cc(NC(=O)c3ccccc3)n(C)n2)cc1F [SW394743, N-(4-(5-Benzamido-1-methyl-1H-pyrazol-3-yl)-2-fluorophenyl)-2-methylnicotinamide] | 15 |
| Cn1nc(-c2ccc(NC(=O)c3ccccc3Cl)cc2)cc1NC(=O)c1cccc(OCCNc2ccc([N+](=O)[O-])c3nonc23)c1 [SW394971, 2-Chloro-N-(4-(1-methyl-5-(3-(2-((7-nitrobenzo[c][1,2,5]oxadiazol-4-yl)amino)ethoxy)benz-amido)-1H-pyrazol-3-yl)phenyl)benzamide] | 0.02 |
| O=C(Nc1cc(-c2ccc(NC(=O)c3ccccc3Cl)cc2)nn1Cc1ccccc1)c1ccccc1 [SW393215, N-(4-(5-Benzamido-1-benzyl-1H-pyrazol-3-yl)phenyl)-2-chlorobenzamide] | 0.62 |
| Cn1nc(-c2ccc(NC(=O)c3ccccc3Cl)cc2Cl)cc1NC(=O)c1ccccc1 [SW393294, N-(4-(5-benzamido-1-methyl-1H-pyrazol-3-yl)-3-chlorophenyl)-2-chlorobenzamide] | 0.28 |
| O=C(Nc1cccc(-c2ccc(NC(=O)c3ccccc3Cl)cc2)c1)c1ccccc1 [SW394484, N-(3′-benzamido-[1,1′-biphenyl]-4-yl)-2-chlorobenzamide] | 3.94 |
| C#Cc1cccc(C(=O)Nc2cc(-c3ccc(NC(=O)c4ccc(C5(C(F)(F)F)N=N5)cc4)cc3)nn2C)c1 [SW393242, 3-Ethynyl-N-(1-methyl-3-(4-(4-(3-(trifluoromethyl)-3H-diazirin-3-yl)benzamido)phenyl)-1H-pyrazol-5-yl)benzamide] | 1.35 |
| Cn1nc(-c2ccc(NC(=O)c3ccccc3-c3ccc([N+](=O)[O-])cc3)cc2)cc1NC(=O)c1ccccc1 [SW394548, N-(4-(5-Benzamido-1-methyl-1H-pyrazol-3-yl)phenyl)-4′-nitro-[1,1′-biphenyl]-2-carboxam-ide] | 1.13 |
| Cc1ncccc1C(=O)Nc1ccc(-c2cc(N(C)C(=O)c3ccccc3)n(C)n2)cc1 [SW394880-1, 2-methyl-N-(4-(1-methyl-5-(N-methylbenzamido)-1H-pyrazol-3-yl)phenyl)nicotinamide] | 1.04 |
| Cn1nc(-c2ccc(NC(=O)c3ccccc3Cl)cc2)cc1NC(=O)c1ccccc1Br [SW393218, 2-bromo-N-(3-(4-(2-chlorobenzamido)phenyl)-1-methyl-1H-pyrazol-5-yl)benzamide] | 0.02 |
| CCn1nc(-c2ccc(NC(=O)c3ccccc3Cl)cc2)cc1NC(=O)c1ccccc1 [SW393214, N-(4-(5-Benzamido-1-ethyl-1H-pyrazol-3-yl)phenyl)-2-chlorobenzamide] | 0.57 |
| Cn1nc(-c2ccc(NC(=O)c3ccccc3COCCN=[N+]=[N-])cc2)cc1NC(=O)c1cccc(C(=O)c2ccccc2)c1 [SW394738, 2-((2-azidoethoxy)methyl)-N-(4-(5-(3-benzoylbenzamido)-1-methyl-1H-pyrazol-3-yl)phenyl)benzamide] | 0.07 |
| Cn1nc(-c2ccc(NC(=O)c3ccccc3COCCNC(=O)OC(C)(C)C)cc2)cc1NC(=O)c1ccccc1 [SW394532, tert-butyl (2-((2-((4-(5-benzamido-1-methyl-1H-pyrazol-3-yl)phenyl)carbamoyl)benzyl)oxy)ethyl)carbamate] | 0.121 |

Next, values leading:

| IC50 [µM] | Compound |
| --- | --- |
| 0.15 | Cn1nc(-c2ccc(NC(=O)c3ccccc3CN3CCOCC3)cc2)cc1NC(=O)c1ccccc1 [SW393298, N-(4-(5-Benzamido-1-methyl-1H-pyrazol-3-yl)phenyl)-2-(morpholinomethyl)benzamide] |
| 0.05 | Cn1nc(-c2ccc(NC(=O)c3ccccc3Cl)cc2)cc1NC(=O)C1CCCCCC1 [SW394599, N-(3-(4-(2-Chlorobenzamido)phenyl)-1-methyl-1H-pyrazol-5-yl)cycloheptanecarboxamide] |
| 0.04 | Cn1nc(-c2ccc(NC(=O)c3ccccc3F)cc2)cc1NC(=O)c1ccccc1 [SW393241, N-(4-(5-Benzamido-1-methyl-1H-pyrazol-3-yl)phenyl)-2-fluorobenzamide] |
| 0.22 | Cn1nc(-c2ccc(NC(=O)c3ccccc3)cc2)cc1NC(=O)c1ccccc1 [SW106593, N-(4-(5-Benzamido-1-methyl-1H-pyrazol-3-yl)phenyl)benzamide] |
| > 10 | COc1cc(-c2cc(NC(=O)c3ccccc3)n(C)n2)ccc1NC(=O)c1ccccc1Cl [SW393279, N-(4-(5-benzamido-1-methyl-1H-pyrazol-3-yl)-2-methoxyphenyl)-2-chlorobenzamide] |
| 0.32 | Cn1nc(-c2ccc(NC(=O)C3CCCC3)cc2)cc1NC(=O)c1ccccc1 [SW394488, N-(3-(4-(Cyclopentanecarboxamido)phenyl)-1-methyl-1H-pyrazol-5-yl)benzamide] |
| > 5 | Cn1nc(-c2ccc(NC(=O)N3CCCC3)cc2)cc1NC(=O)c1ccccc1 [SW394893-1, N-(4-(5-benzamido-1-methyl-1H-pyrazol-3-yl)phenyl)pyrrolidine-1-carboxamide] |
| 0.19 | Cn1nc(-c2ccc(NC(=O)c3ccccc3Cl)cc2)cc1NC(=O)N1CCCC1 [SW394876, N-(3-(4-(2-Chlorobenzamido)phenyl)-1-methyl-1H-pyrazol-5-yl)pyrrolidine-1-carboxamide] |
| 19 | COc1ccc(C(=O)Nc2ccc(-c3cc(NC(=O)c4ccccc4)n(C)n3)cc2)cc1 [SW388716, N-(4-(5-Benzamido-1-methyl-1H-pyrazol-3-yl)phenyl)-4-methoxybenzamide] |
| 0.044 | Cn1nc(-c2ccc(NC(=O)C3CCCCCC3)cc2)cc1NC(=O)c1ccccc1 [SW394515, N-(4-(5-Benzamido-1-methyl-1H-pyrazol-3-yl)phenyl)cycloheptanecarboxamide] |
| 0.04 | Cn1nc(-c2ccc(NC(=O)c3ccccc3Cl)cc2)cc1NC(=O)[C@H]1CCC[C@@H](N)C1 (single isomer, unassigned) [SW394869-isomer 1] |
| 0.05 | Cn1nc(-c2ccc(NC(=O)c3ccncc3Cl)cc2)cc1NC(=O)c1ccccc1 [SW394446, N-(4-(5-Benzamido-1-methyl-1H-pyrazol-3-yl)phenyl)-3-chloroisonicotinamide] |
| 0.29 | Cn1nc(-c2ccc(NC(=O)c3ccccc3Cl)cc2)cc1NC(=O)N1CCOCC1 [SW394873, N-(3-(4-(2-Chlorobenzamido)phenyl)-1-methyl-1H-pyrazol-5-yl)morpholine-4-carboxamide] |
| 0.13 | Cc1ncccc1C(=O)Nc1ccc(-c2cc(NC(=O)C3CCOCC3)n(C)n2)cc1 [SW394746, 2-Methyl-N-(4-(1-methyl-5-(tetrahydro-2H-pyran-4-carboxamido)-1H-pyrazol-3-yl)phenyl)nicotinamide] |
| 16 | Cn1nc(-c2ccc(N)cc2)cc1NC(=O)c1ccccc1 [SW388714, N-(3-(4-Aminophenyl)-1-methyl-1H-pyrazol-5-yl)benzamide] |
| 0.02 | Cn1nc(-c2ccc(NC(=O)c3cccnc3Cl)cc2)cc1NC(=O)c1ccccc1 [SW394443, N-(4-(5-Benzamido-1-methyl-1H-pyrazol-3-yl)phenyl)-2-chloronicotinamide] |
| 3.84 | Cn1nc(-c2ccc(NC(=O)C3CCN(C(=O)OC(C)(C)C)CC3)cc2)cc1NC(=O)c1ccccc1 [SW394490, tert-butyl4-((4-(5-benzamido-1-methyl-1H-pyrazol-3-yl)phenyl)carbamoyl)piperidine-1-carboxylate] |
| 0.12 | Cn1nc(-c2ccc(NC(=O)c3ccccc3Cl)cc2)cc1NC(=O)C1CCCC(NC(=O)OC(C)(C)C)C1 (single isomer, unassigned) [SW394868-isomer 2] |
| 0.02 | CN(C)c1cccc(C(=O)Nc2cc(-c3ccc(NC(=O)c4ccccc4Cl)cc3)nn2C)c1 [SW394870, 2-Chloro-N-(4-(5-(3-(dimethylamino)benzamido)-1-methyl-1H-pyrazol-3-yl)phenyl)benzamide] |
| 0.77 | Cn1nc(-c2ccc(NC(=O)C3CCCO3)cc2)cc1NC(=O)c1ccccc1 (single isomer, unassigned) [SW394516 (isomer 2)] |

same assay, conditions: wild type HCT116; 10-point dose response in triplicate; multiple values = separate independent experiments

| HCT116 IC50 (uM) HCT116 WT | Compound |
| --- | --- |
| inactive | Cn1nc(-c2ccc(NC(=O)C3CCCO3)cc2)cc1NC(=O)c1ccccc1 (single isomer, unassigned) [SW394516 (isomer 1)] |
| inactive | COc1ccc(C(=O)Nc2cc(-c3ccc(N)cc3)nn2C)cc1 [SW388717, N-(3-(4-Aminophenyl)-1-methyl-1H-pyrazol-5-yl)-4-methoxybenzamide] |
| inactive | O=C(Nc1ccc(-c2nnc(NC(=O)c3ccccc3Cl)o2)cc1)c1ccccc1Cl [SW394597, 2-chloro-N-(4-(5-(2-chlorobenzamido)-1,3,4-oxadiazol-2-yl)phenyl)benzamide] |
